Data taken from ChEMBL document CHEMBL6153087, “Emoquine-1: A Hybrid Molecule Efficient against Multidrug-Resistant Plasmodium Parasites, Including the Artemisinin-Resistant Quiescent Stage, and Also Active In Vivo” (J Med Chem, 2025).
Calls of active or inactive are those of the source. The calls are words filed in the database; no cut-off is given here.

What was measured:
Plasmodium falciparum [1] = assay: (§1) Antiplasmodial activity against synchronized ring stage DHA-induced quiescent artemisinin-resistant Plasmodium falciparum F32 assessed as decrease in parasite recrudescence at 1 uM pretreated with dihydroartemisinin for 6 hrs followed by compound administration for 48 hrs in presence of dihydroartemisinin by quiescent-stage survival assay; format: functional, organism-based
Heme [2] = assay: Inhibition of heme polymerization in acetate buffer at pH 5 assessed as reduction in beta-hematin formation at 5 equiv incubated for 18 hrs by infrared spectroscopic analysis relative to control
Plasmodium falciparum [3] = assay: Antiplasmodial activity against artemisinin-sensitive Plasmodium falciparum F32 assessed as inhibition of parasite growth incubated for 48 hrs of SYBR green fluorescence-based method; format: functional, organism-based; details: F32, 48 h
Plasmodium falciparum [4] = assay: Antiplasmodial activity against artemisinin-resistant Plasmodium falciparum F32 assessed as inhibition of parasite growth incubated for 48 hrs of SYBR green fluorescence-based method; format: functional, organism-based; details: F32, 48 h
[5] = Stability in human plasma assessed as parent compound remaining at 1 uM measured after 2 hrs by LC-MS/MS analysis; format: ADME, cell-free; details: read-out: Stability
[6] = Metabolic stability in human liver microsomes at 1 uM measured after 1 hrs by LC-MS/MS analysis; format: ADME, Microsome
[7] = Selectivity index, ratio of CC50 for cytotoxicity against African green monkey Vero cells to IC50 for antiplasmodial activity against artemisinin-resistant Plasmodium falciparum F32; format: toxicity, cell-based; details: read-out: Ratio CC50/IC50
Plasmodium falciparum [8] = assay: Antiplasmodial activity against chloroquine-resistant Plasmodium falciparum clinical isolate IPC8461 assessed as inhibition of parasite growth incubated for 48 hrs of SYBR green fluorescence-based method; format: functional, organism-based
[9] = Cytotoxicity against African green monkey Vero cells assessed as cell metabolic activity incubated for 48 hrs by MTT assay; format: toxicity, cell-based; details: chlorocebus sabaeus
Plasmodium falciparum [10] = assay: Antiplasmodial activity against synchronized ring stage artemisinin-sensitive Plasmodium falciparum F32 assessed as number of days required to reach 3% initial parasitemia by measuring median recrudescence time at 1 uM incubated for 48 hrs by recrudescence assay; format: functional
Heme [11] = assay: Inhibition of heme polymerization in acetate buffer at pH 5 assessed as reduction in beta-hematin formation at 2.0 molequiv incubated for 18 hrs by infrared spectroscopic analysis relative to control
Plasmodium falciparum [12] = assay: Antiplasmodial activity against chloroquine-resistant Plasmodium falciparum clinical isolate IPC8262 assessed as inhibition of parasite growth incubated for 48 hrs of SYBR green fluorescence-based method; format: functional, organism-based
Plasmodium falciparum [13] = assay: Antiplasmodial activity against synchronized ring stage artemisinin-resistant Plasmodium falciparum F32 assessed as number of days required to reach 3% initial parasitemia by measuring median recrudescence time at 1 uM incubated for 48 hrs by recrudescence assay; format: functional
[14] = Thermal stability at 60 degreeC incubated for 2 months; format: physicochemical; details: 1460 h
Plasmodium falciparum [15] = assay: Antiplasmodial activity against atovaquone-resistant Plasmodium falciparum clinical isolate Q120 assessed as inhibition of parasite growth incubated for 48 hrs of SYBR green fluorescence-based method; format: functional, organism-based
[16] = Metabolic stability in human liver microsomes assessed as half-life at 1 uM measured after 1 hrs by LC-MS/MS analysis; format: ADME, Microsome
Plasmodium falciparum [17] = assay: as §1, with “recrudescence by measuring time required for parasites to reach initial parasitemia” for “recrudescence”; format: functional
Plasmodium falciparum [18] = assay: Antiplasmodial activity against synchronized ring stage artemisinin-resistant Plasmodium falciparum F32 assessed as decrease in parasite recrudescence by measuring time required for parasites to reach initial parasitemia at 1 uM incubated for 48 hrs by recrudescence assay; format: functional
Plasmodium falciparum [19] = assay: Antiplasmodial activity against synchronized ring stage artemisinin-sensitive Plasmodium falciparum F32 assessed as number of days required to reach 3% initial parasitemia by measuring median recrudescence time at 7 uM incubated for 48 hrs by recrudescence assay; format: functional
Plasmodium falciparum [20] = assay: Antiplasmodial activity against synchronized ring stage artemisinin-resistant Plasmodium falciparum F32 assessed as number of days required to reach 3% initial parasitemia by measuring median recrudescence time at 7 uM incubated for 48 hrs by recrudescence assay; format: functional
Heme [21] = assay: Inhibition of heme polymerization in acetate buffer at pH 5 assessed as reduction in beta-hematin formation at 10 molequiv incubated for 18 hrs by infrared spectroscopic analysis
[22] = Inhibition of recombinant Plasmodium falciparum 3D7 FIKK8 by enzyme-coupled assay
Plasmodium falciparum [23] = assay: Antiplasmodial activity against Plasmodium falciparum; format: functional, organism-based
Plasmodium falciparum [24] = assay: Antiplasmodial activity against synchronized ring stage artemisinin-resistant Plasmodium falciparum F32 assessed as decrease in parasite recrudescence by measuring time required for parasites to reach initial parasitemia at 200 nM incubated for 48 hrs by recrudescence assay; format: functional
Plasmodium falciparum [25] = assay: as §1, with “recrudescence by measuring time required for parasites to reach initial parasitemia” for “recrudescence”, “200 nM” for “1 uM”; format: functional
Plasmodium falciparum [26] = assay: Antiplasmodial activity against synchronized ring stage artemisinin-sensitive Plasmodium falciparum F32 assessed as number of days required to reach 3% initial parasitemia by measuring median recrudescence time at 18 uM incubated for 48 hrs by recrudescence assay; format: functional
[27] = tested on: Plasmodium vinckei petteri; assay: Antiplasmodial activity Plasmodium vinckei petteri infected in female Swiss albino mouse model assessed as reduction in parasitemia administered orally for 4 days and measured on day 5; format: functional; details: 120 h, route po, time 5 day
Plasmodium falciparum [28] = assay: Antiplasmodial activity against synchronized ring stage artemisinin-resistant Plasmodium falciparum F32 assessed as number of days required to reach 3% initial parasitemia by measuring median recrudescence time at 18 uM incubated for 48 hrs by recrudescence assay; format: functional
[29] = tested on: Plasmodium vinckei petteri; assay: Antiplasmodial activity Plasmodium vinckei petteri infected in female Swiss albino mouse model assessed as reduction in parasitemia administered intraperitoneally for 4 days and measured on day 5; format: functional; details: 120 h, route ip, time 5 day
Plasmodium falciparum [30] = assay: Antiplasmodial activity against synchronized ring stage artemisinin-resistant Plasmodium falciparum F32 assessed as decrease in parasite recrudescence by measuring time required for parasites to reach initial parasitemia at […] incubated for 54 hrs by recrudescence assay; format: functional
Heme [31] = assay: Inhibition of heme polymerization in acetate buffer at pH 5 assessed as reduction in beta-hematin formation at 15 equiv incubated for 18 hrs by infrared spectroscopic analysis relative to control
Heme [32] = assay: Inhibition of heme polymerization in acetate buffer at pH 5 assessed as reduction in beta-hematin formation at 1.2 molar ratio of drug to hemin incubated for 18 hrs by infrared spectroscopic analysis relative to control
[33] = tested on: Plasmodium vinckei petteri; assay: Antiplasmodial activity Plasmodium vinckei petteri infected in female Swiss mouse model assessed as reduction in parasitemia administered orally for 4 days starting from 4 hrs post infection and measured on day 30; format: functional; details: 720 h, route po, time 30 day
[34] = Toxicity in female Swiss mouse model infected with Plasmodium vinckei petteri assessed as clinical signs at 0.1 to 10 mg/kg/day, ip administered for 4 days and measured after 30 days; format: organism-based; details: in vivo, 720 h, dose 0.1-10 mg/kg/day, time 30 day
[35] = tested on: Plasmodium vinckei petteri; assay: Antiplasmodial activity Plasmodium vinckei petteri infected in female Swiss mouse model assessed as reduction in parasitemia administered intraperitoneally for 4 days starting from 4 hrs post infection and measured on day 30; format: functional; details: 720 h, route ip, time 30 day
[36] = tested on: Plasmodium vinckei petteri; assay: Antiplasmodial activity Plasmodium vinckei petteri infected in female Swiss mouse model assessed as reduction in parasitemia at 25 mg/kg/day, po administered for 4 days starting from 4 hrs post infection and measured on day 5 by giemsa staining based analysis relative to control; format: functional; parameters: scale not given: the % may be the effect or the level left; details: time 5 day
Plasmodium falciparum [37] = assay: Antiplasmodial activity against synchronized ring stage artemisinin-resistant Plasmodium falciparum F32 assessed as number of days required to reach 3% initial parasitemia by measuring median recrudescence time at 0.5 uM incubated for 48 hrs by recrudescence assay; format: functional
[38] = tested on: Plasmodium vinckei petteri; assay: Antiplasmodial activity Plasmodium vinckei petteri infected in female Swiss mouse model assessed as reduction in parasitemia at 10 mg/kg/day, ip administered for 4 days starting from 4 hrs post infection and measured on day 30 by giemsa staining based analysis; format: functional, organism-based; details: time 30.0 day
[39] = tested on: Plasmodium vinckei petteri; assay: Antiplasmodial activity Plasmodium vinckei petteri infected in female Swiss mouse model assessed as reduction in parasitemia at 10 mg/kg/day, ip administered for 4 days starting from 4 hrs post infection and measured on day 5 by giemsa staining based analysis; format: functional, organism-based; details: time 5.0 day
[40] = tested on: Plasmodium vinckei petteri; assay: Antiplasmodial activity Plasmodium vinckei petteri infected in female Swiss mouse model assessed as reduction in parasitemia at 1 mg/kg/day, ip administered for 4 days starting from 4 hrs post infection and measured on day 5 by giemsa staining based analysis relative to control; format: functional; parameters: scale not given: the % may be the effect or the level left; details: time 5 day
[41] = tested on: Plasmodium vinckei petteri; assay: Antiplasmodial activity Plasmodium vinckei petteri infected in female Swiss mouse model assessed as reduction in parasitemia at 0.1 mg/kg/day, ip administered for 4 days starting from 4 hrs post infection and measured on day 5 by giemsa staining based analysis; format: functional, organism-based; details: time 5.0 day
Plasmodium falciparum [42] = assay: Antiplasmodial activity against synchronized ring stage artemisinin-sensitive Plasmodium falciparum F32 assessed as number of days required to reach 3% initial parasitemia by measuring median recrudescence time at 0.5 uM incubated for 48 hrs by recrudescence assay; format: functional

Compound | IC50 (Plasmodium falciparum [3]) | IC50 (Plasmodium falciparum [4]) | selectivity ratio [7] | IC50 (Plasmodium falciparum [8]) | CC50 at 48 h [9] | IC50 (Plasmodium falciparum [12]) | IC50 (Plasmodium falciparum [15]) | further results
CCOCCOc1cc(O)c2c(c1)C(=O)c1cc(C)cc(O)c1C2=O | > 10000 nM | > 10000 nM | – | – | – | – | – | Activity (Plasmodium falciparum [1]): inactive; inhibition (Heme [2]): 100%
Clc1ccc2c(N3CCNCC3)ccnc2c1 | 1400 nM | 1310 nM | – | – | – | – | – | –
Clc1ccc([C@@H](c2ccccc2)N2CCN(CCNc3ccnc4cc(Cl)ccc34)CC2)cc1 | 75 nM | 101 nM | 140 | 53 nM | 14000 nM | 33 nM | 9000 nM | remaining at 2 h, 1 µM [5]: 100%; Stability [6]: Stable; Time (Plasmodium falciparum [10]): 11 days; inhibition (Heme [11]): 100%; Time (Plasmodium falciparum [13]): 12 days; Stability [14]: Stable; half-life at 1 µM [16]: 46 min; Time (Plasmodium falciparum [17]): 7 days
O=C1C(O)=C([C@H]2CC[C@H](c3ccc(Cl)cc3)CC2)C(=O)c2ccccc21 [ATOVAQUONE] | – | 1.9 nM | 3700 | 1 nM | 7000 nM | 0.7 nM | 4700 nM | Time (Plasmodium falciparum [18]): 14 days; Time (Plasmodium falciparum [19]): 13 days; Time (Plasmodium falciparum [20]): 16 days; Time (Plasmodium falciparum [17]): 20 days
Clc1ccc([C@@H](c2ccccc2)N2CCNCC2)cc1 | 6000 nM | > 10000 nM | < 2 | – | 20000 nM | – | 9000 nM | Activity (Plasmodium falciparum [1]): inactive; inhibition (Heme [11]): inactive; inhibition (Heme [21]): inactive
Cc1cc(O)c2c(c1)C(=O)c1cc(OCCN3CCN(c4ccnc5cc(Cl)ccc45)CC3)cc(O)c1C2=O | – | 775 nM | > 13 | – | > 10000 nM | – | – | –
Cc1cc(O)c2c(c1)C(=O)c1cc(OCCOCCN3CCN(c4ccnc5cc(Cl)ccc45)CC3)cc(O)c1C2=O | – | 825 nM | 15 | – | 12000 nM | – | – | –
Cc1cc(O)c2c(c1)C(=O)c1cc(O)cc(O)c1C2=O [EMODIN] | – | > 50000 nM | < 0.7 | – | 34000 nM | – | – | IC50 [22]: 2000 nM; IC50 (Plasmodium falciparum [23]): > 10000 nM
CCN(CC)CCCC(C)Nc1ccnc2cc(Cl)ccc12 (configuration not stated) [CHLOROQUINE] | – | – | – | – | > 50000 nM | – | – | Time (Plasmodium falciparum [24]): >20 days; Time (Plasmodium falciparum [25]): 8 days
C[C@@H]1CC[C@H]2[C@@H](C)C(=O)O[C@@H]3O[C@@]4(C)CC[C@@H]1[C@]32OO4 [ARTEMISININ] | – | – | – | – | – | – | – | Time (Plasmodium falciparum [26]): 15 days; ED50 [27]: 17 mg/kg/day; Time (Plasmodium falciparum [28]): 10 days; ED50 [29]: 4 mg/kg/day
C[C@H]1[C@@H](O)O[C@@H]2O[C@@]3(C)CC[C@H]4[C@H](C)CC[C@@H]1[C@@]24OO3 [ARTENIMOL] | 2.2 nM | – | 12000 | 2.6 nM | 30000 nM | 2.5 nM | 2.4 nM | Time (Plasmodium falciparum [30]): 8 days
NCCNc1ccnc2cc(Cl)ccc12 | 28 nM | 54 nM | > 925 | 354 nM | > 50000 nM | 134 nM | 2300 nM | Activity (Plasmodium falciparum [1]): inactive; inhibition (Heme [31]): 100%; inhibition (Heme [11]): inactive; inhibition (Heme [21]): inactive
Cc1cc(O)c2c(c1)C(=O)c1cc(OCCOCCNCCNc3ccnc4cc(Cl)ccc34)cc(O)c1C2=O | 59 nM | 54 nM | 222 | 84 nM | 12000 nM | 33 nM | 24 nM | remaining at 2 h, 1 µM [5]: 100%; inhibition (Heme [32]): 100%; ED50 [33]: ~25 mg/kg/day; Activity [34]: Non-toxic; ED50 [35]: 4 mg/kg/day; Time (Plasmodium falciparum [10]): >30 days; Activity [36]: 44%; Time (Plasmodium falciparum [37]): 23 days; Activity [38]: Active; Recrudescence Not Observed; Activity [39]: Not active; No Detectable Parasitemia Observed; Activity [40]: 17%; Activity [41]: inactive; Time (Plasmodium falciparum [42]): 26 days; Stability [14]: Stable; Time (Plasmodium falciparum [17]): >22 days
